Here are results for four molecules from US9314026B2, “Heterocyclylpyri(mi)dinylpyrazole” (Bayer Intellectual Property GmbH, priority 2011, dated 2016).

The test system of data set [1] is Pyricularia oryzae. The data set is described as follows: whole plant or invertebrate. Format: in vivo. Particulars: 168 h, read-out: efficacy.
Data set [2] has as its system Fusarium nivale (var. majus). The data set is described as follows: Fusarium nivale (var. majus)-test (wheat)/preventive. Format: in vivo. The following applies: Microdochium nivale, 120 h, 500 ppm of active ingredient, preventive, evaluated 5 days after inoculation, read-out: efficacy. As for the experimental part: (§1) Fusarium nivale (Var. Majus)-Test (Wheat)/Preventive Solvent: 49 parts by weight of n,n-dimethylacetamid Emulsifier: 1 part by weight of alkylaryl polyglycol ether To produce a suitable preparation of active compound, 1 part by weight of active compound or active compound combination is mixed with the stated amounts of solvent and emulsifier, and the concentrate is diluted with water to the desired concentration. To test for preventive activity, young plants are sprayed with the preparation of active compound or active compound combination at the stated rate of application. After the spray coating has been dried, the plants are slightly injured by using a sandblast and afterwards they are sprayed with a conidia suspension of Fusarium nivale (var. majus).

Data set [3] deals with Pyrenophora teres. Nature of the data set: Pyrenophora test (barley)/preventive. Particulars: 500 ppm of active ingredient, preventive, evaluated 7-9 days after inoculation, read-out: efficacy. Format: in vivo. The procedure:
(§2) Pyrenophora Test (Barley)/Preventive Solvent: 49 parts by weight of N,N-Dimethylformamide Emulsifier: 1 part by weight of Alkylarylpolyglycolether To produce a suitable preparation of active compound, 1 part by weight of active compound is mixed with the stated amounts of solvent and emulsifier, and the concentrate is diluted with water to the desired concentration. To test for preventive activity, young plants are sprayed with the preparation of active compound at the stated rate of application. One day after this treatment, the plants are inoculated with an aqueous spore suspension of Pyrenophora teres.

Data set [4] has as its system Alternaria solani. Nature of the data set: Alternaria test (tomato)/preventive. Particulars: 168 h, 500 ppm of active ingredient, preventive, evaluated 7 days after inoculation, read-out: efficacy. It counts as in vivo. As for the experimental part: as §2, with “Alternaria” for “Pyrenophora”, “(Tomato)/Preventive” for “(Barley)/Preventive”, “Alternaria solani. […] Then the plants are placed in an incubation cabinet at approximately 20° C. and a relative atmospheric humidity of 96%.” for “Pyrenophora teres.”

The test system of data set [5] is Fusarium graminearum. The data set is described as follows: whole plant or invertebrate. It counts as in vivo. The following applies: in Hordeum vulgare, 120 h, read-out: efficacy.
Data set [6] relates to Botrytis cinerea. The data set is described as follows: Botrytis test (beans)/preventive. It counts as in vivo. Particulars: 48 h, 100 ppm of active ingredient, preventive, size of lesions evaluated 2 days after inoculation, read-out: efficacy. As for the experimental part: Botrytis Test (Beans)/Preventive Solvent: 24.5 parts by weight of acetone • 24.5 parts by weight of dimethylacetamide Emulsifier: 1 part by weight of alkylaryl polyglycol ether To produce a suitable preparation of active compound, 1 part by weight of active compound is mixed with the stated amounts of solvent and emulsifier, and the concentrate is diluted with water to the desired concentration. To test for preventive activity, young plants are sprayed with the preparation of active compound. After the spray coating has dried on, 2 small pieces of agar covered with growth of Botrytis cinerea are placed on each leaf.

Data set [7] has as its system Septoria tritici. The data set is described as follows: Septoria tritici-test (wheat)/preventive. It counts as in vivo. Particulars: 500 ppm of active ingredient, preventive, evaluated 21 days after inoculation. The procedure: as §1, with “Septoria tritici-Test” for “Fusarium nivale (Var. Majus)-Test”, “are” for “are slightly injured by using a sandblast and afterwards they are”, “spore” for “conidia”, “Septoria tritici.” for “Fusarium nivale (var. majus).”

The test system of data set [8] is Puccinia recondita. Nature of the data set: Puccinia test (wheat)/preventive. It counts as in vivo. Particulars: 500 ppm of active ingredient, preventive, evaluated 7-9 days after inoculation, read-out: efficacy. As for the experimental part:
as §2, with “Puccinia” for “Pyrenophora”, “(Wheat)/Preventive” for “(Barley)/Preventive”, “Puccinia recondita.” for “Pyrenophora teres.”

The test system of data set [9] is Sphaerotheca fuliginea. The data set is described as follows: Sphaerotheca test (cucumber)/preventive. It counts as in vivo. The following applies: Podosphaera fuliginea, 168 h, 500 ppm of active ingredient, preventive, evaluated 7 days after inoculation, 0% = untreated control, 100% = no disease, read-out: efficacy. The procedure: as §2, with “Sphaerotheca” for “Pyrenophora”, “(Cucumber)/Preventive” for “(Barley)/Preventive”, “Sphaerotheca fuliginea.” for “Pyrenophora teres.”

Data set [10] is described as follows: determination of the log P values by HPLC on a reverse phase column (C18), EEC-Directive 79/831 Annex V.A8. It counts as physicochemical. In a few lines:
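Log P determined per EEC-Directive 79/831 Annex V.A8 by reverse-phase (C18) HPLC (methods A, B) or UPLC (method C), with mass detection.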

For data set [11], the system named is Plasmopara viticola. Nature of the data set: Plasmopara test (grapevines)/preventive. It counts as in vivo. Particulars: 100 ppm of active ingredient, preventive, evaluated 6 days after inoculation. As for the experimental part: Plasmopara Test (Grapevines)/Preventive Solvent: 24.5 parts by weight of acetone • 24.5 parts by weight of dimethylacetamide Emulsifier: 1 part by weight of alkylaryl polyglycol ether To produce a suitable preparation of active compound, 1 part by weight of active compound is mixed with the stated amounts of solvent and emulsifier, and the concentrate is diluted with water to the desired concentration. To test for preventive activity, young plants are sprayed with the preparation of active compound at the stated rate of application. […] The plants are then misted and placed for 1 day in an incubation cabinet.

Data set [12] relates to Venturia inaequalis. Nature of the data set: Venturia test (apples)/preventive. Format: in vivo. Particulars: 100 ppm of active ingredient, preventive, evaluated 10 days after inoculation. The procedure:
Venturia Test (Apples)/Preventive Solvent: 24.5 parts by weight of acetone • 24.5 parts by weight of dimethylacetamide Emulsifier: 1 part by weight of alkylaryl polyglycol ether To produce a suitable preparation of active compound, 1 part by weight of active compound is mixed with the stated amounts of solvent and emulsifier, and the concentrate is diluted with water to the desired concentration. To test for preventive activity, young plants are sprayed with the preparation of active compound at the stated rate of application.

In data set [13] the test system is Leptosphaeria nodorum. The data set is described as follows: Leptosphaeria test (wheat)/preventive. It counts as in vivo. The following applies: Parastagonospora nodorum, 500 ppm of active ingredient, preventive, evaluated 7-9 days after inoculation, read-out: efficacy. As for the experimental part:
as §2, with “Leptosphaeria Test (Wheat)/Preventive” for “Pyrenophora Test (Barley)/Preventive”, “Leptosphaeria Test (Wheat)/Preventive Solvent: 49” for “Pyrenophora Test (Barley)/Preventive Solvent: 49”, “sprayed with a preparation of” for “sprayed with the preparation of”, “suspension of Leptosphaeria nodorum.” for “suspension of Pyrenophora teres.”

Data set [14] relates to Phytophthora infestans. The data set is described as follows: whole plant or invertebrate. Format: in vivo. The following applies: 72 h, read-out: efficacy.

For orientation: chromatographic logP means a lipophilicity value derived from retention on a column. The low end stands for a more hydrophilic compound, the high end for a more lipophilic compound. For `CCC(=O)N(C(C)=O)c1cc(-c2c(-c3ccc(F)cc3)nn3c2CCC3C)ccn1` (centres unmarked) [Example 6, N-acetyl-N-{4-[2-(4-fluorophenyl)-6-methyl-5,6-dihydro-4H-pyrrolo[1,2-b]pyrazol-3-yl]pyridin-2-yl}propanamide], the pest or weed control at 500 ppm was determined as 90% in data set [1]; 100% in data set [2]; 100% in [3]; 70% in [4]; 83% in data set [5]; 100% in data set [8]. The pest or weed control at 500 ppm in data set [9] and in data set [13] was 95% throughout. Besides, the pest or weed control at 100 ppm in [6] turned out to be 89%; in [14], 91%. Moreover, the efficacy is given as 86% in data set [7], 94% in data set [11] and 98% in data set [12]. The same molecule returned a chromatographic logP in data set [10] of 2.78.
`CC(=O)N(C(C)=O)c1cc(-c2c(-c3ccc(F)cc3)nn3c2CCCC3)ccn1` [Example 1, N-acetyl-N-{4-[2-(4-fluorophenyl)-4,5,6,7-tetrahydropyrazolo[1,5-a]pyridin-3-yl]pyridin-2-yl}acetamide]: the pest or weed control at 500 ppm in data set [1] stood at 80%; in data set [2], 100%; in data set [3] it was 95%; in [4], 100%; in data set [5] it was 100%; in [8] it was 100%. The pest or weed control at 500 ppm in data set [9] turned out to be 94%; in data set [13], 95%. Besides, the pest or weed control at 100 ppm in data set [6] was 88%; in data set [14] it was 94%. Moreover, the results for the efficacy in data set [7] and in [11] were 100% and 75%, respectively. Further, the chromatographic logP in data set [10] is 2.42.
Consider `CCOC(=O)N(C(=O)C1CC1)c1cc(-c2c(-c3ccc(F)cc3)nn3c2CCC3)ccn1` [Example 11, ethyl (cyclopropylcarbonyl){4-[2-(4-fluorophenyl)-5,6-dihydro-4H-pyrrolo[1,2-b]pyrazol-3-yl]pyridin-2-yl}carbamate], for which the pest or weed control at 500 ppm came out at 70% in [1]; 95% in data set [3]; 95% in [4]; 100% in data set [8]; 95% in data set [9]; 95% in data set [13]. Also, the pest or weed control at 100 ppm in data set [6] came out at 74%; in [14], 86%. This molecule also showed a chromatographic logP in data set [10] of 2.78. In data set [11], this molecule returned an efficacy of 90%.
As for `CCC(=O)N(C(=O)C1CC1)c1cc(-c2c(-c3ccc(F)cc3)nn3c2CCC3)ccn1` [Example 9, N-{4-[2-(4-fluorophenyl)-5,6-dihydro-4H-pyrrolo[1,2-b]pyrazol-3-yl]pyridin-2-yl}-N-propionylcyclopropanecarboxamide], the pest or weed control at 500 ppm was found to be 90% in data set [1]; 95% in data set [3]; 100% in data set [8]; 100% in data set [9]; 95% in data set [13]. Also, the pest or weed control at 100 ppm in data set [6] was determined as 96%; in data set [14] it was 79%. The same molecule returned a chromatographic logP in data set [10] of 2.87. Further, the efficacy in [11] was found to be 95%; in data set [12] it was 100%.
